Our source for the mass density and viscosity values is the NIST ThermoML archive (doi:10.1016/j.jct.2005.08.009).

± gives the expanded uncertainty stated by the source.

The conditions of data set [1]: 101 kPa, Liquid.
Data set [2] is described as follows: xn = mol fraction of the nth substance listed. To be noted: 101 kPa, Liquid, x2 = 0.

For the compound `CC#N` [acetonitrile], the mass density in data set [1] (298.15 K) is 776.69 ± 1.9 kg/m3; in data set [1] (303.15 K), 771.89 ± 1.9 kg/m3; in data set [1] (308.15 K), 765.46 ± 2 kg/m3; in data set [1] (313.15 K) it was 760.86 ± 2 kg/m3; in data set [1] (318.15 K), 754.76 ± 2 kg/m3. Moreover, the viscosity in data set [1] (298.15 K) stood at 0.3417 ± 0.0053 mPa·s; in data set [1] (303.15 K), 0.328 ± 0.0051 mPa·s; in data set [1] (308.15 K) it was 0.3129 ± 0.0049 mPa·s; in data set [1] (313.15 K), 0.3009 ± 0.0048 mPa·s; in data set [1] (318.15 K), 0.2899 ± 0.0047 mPa·s.
For the compound `O` [water] + CC#N, the viscosity in data set [2] (298.15 K) was found to be 0.8901 ± 0.011 mPa·s; in data set [2] (303.15 K), 0.7973 ± 0.01 mPa·s; in data set [2] (308.15 K), 0.7193 ± 0.0093 mPa·s; in data set [2] (313.15 K), 0.653 ± 0.0086 mPa·s; in data set [2] (318.15 K), 0.5961 ± 0.008 mPa·s.

Broadly, the mass density is mass per unit of volume. Broadly, the viscosity is the internal friction of a fluid under shear.
